Reference: patent publication US6608082B1, “Treatment of erectile dysfunction using isoquinoline compound melanocortin receptor ligands” (Lion Bioscience AG, priority 1998, dated 2003)
“And” between values parts separate entries of the source, which are not always exact repeats. Equal values may be shown once.

Experiments:
TNF-α = assay: Reduction of lipopolysaccharide-induced tumor necrosis factor levels in mice; format: in vivo, BALB/c female mice; details: for % TNF-α Inhibtion, IP 30: 30 μg per mouse; for % TNF-α Inhibtion, IP 30 / % TNF-α Inhibtion, IP 100 / % TNF-α Inhibtion, IP 300 / % TNF-α Inhibtion, Oral 600 / % TNF-α Inhibtion, Oral 300: plasma 90 or 105 minutes after LPS, mean ± SEM; for % TNF-α Inhibtion, IP 100: 100 μg per mouse; for % TNF-α Inhibtion, IP 300 / % TNF-α Inhibtion, Oral 300: 300 μg per mouse; for % TNF-α Inhibtion, Oral 600: 600 μg per mouse
Experimental: BALB/c female mice weighing approximately 20 g were placed into a control group and a treated group. Five mg/kg of LPS in 0.9% saline was administered (100 μl to give 100 μg LPS per mouse) by intraperitoneal (IP) injection to all mice. Mice in the treatment group received either 30, 100, 300 or 600 μg of various isoquinoline compounds per mouse in a volume of 100 μl of PBS. Control mice received 100 μl of saline alone. One minute after initial injections all mice received the LPS injection. As a positive control, 100 μg of HP 228 was injected per mouse.
Blood samples were collected from the orbital sinus of treated and control mice 90 minutes or 105 minutes after LPS administration. The plasma was separated by centrifugation at 3000×g for 5 min and stored at −20° C. Samples were thawed and diluted, if TNF-α concentration was greater than 3200 pg/ml, with PBS containing 1% bovine serum albumin, 10% donor horse serum, 1% normal mouse serum, 0.05% TWEEN-20 and 0.05% thimerosal. A 100 μl sample of plasma was assayed by ELISA for TNF-α. Briefly, ELISA plates were coated with hamster anti-mouse TNF-α antibody (Genzyme; Cambridge Mass.). Samples or known concentrations of TNF-α were added to the coated plates and incubated for 2 hr at 37° C. Plates were washed and subsequently incubated with biotinylated rabbit anti-mouse TNG-α for 1 hr at 37° C. Plates were washed and incubated with streptavidin-HRP for 1 hr at 37° C., and HRP activity was detected with hydrogen peroxide and o-phenylenediamine (OPD) using standard immunoassay procedures.
The mean (±SEM) TNF-α level in five mice from each group was determined and the percent reduction in TNF-α levels was calculated.

MCR-1 = molecular target: T1, MCR-1 (Homo sapiens, UniProt Q01726); assay: cAMP assay for melanocortin receptors, HEK 293 cells expressing MCR-1; format: cell-based; details: for EC50: 50% of maximal cAMP production, read-out: MC-1 EC50 (cAMP); for MC-1 Max (pmole) cAMP produced: maximum amount of cAMP
T1 construct: expressed in transfected cells; host or cells: HEK 293
T1 sequence (Q01726 whole entry): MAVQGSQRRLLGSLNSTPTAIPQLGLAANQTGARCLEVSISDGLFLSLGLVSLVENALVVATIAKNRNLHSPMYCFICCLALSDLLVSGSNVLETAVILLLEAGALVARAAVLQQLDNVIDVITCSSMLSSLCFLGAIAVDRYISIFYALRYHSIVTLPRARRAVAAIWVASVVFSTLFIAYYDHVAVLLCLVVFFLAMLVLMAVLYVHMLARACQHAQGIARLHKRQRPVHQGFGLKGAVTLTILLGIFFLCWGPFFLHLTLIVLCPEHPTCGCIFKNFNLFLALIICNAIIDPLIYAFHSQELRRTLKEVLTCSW
Experimental: HEK 293 cells expressing MCR-1, MCR-3, MCR-4 and MCR-5 were used (see Example II). Cells were plated at 20,000 cells per well in a 96-well plate coated with collagen. The next day, cells were pretreated with 75 μl of 0.4 mM 3-isobutyl-1-methylxanthine (IBMX) in low serum medium containing DMEM, 25 mM HEPES, non-essential amino acids, vitamins, 100 units/ml penicillin, 100 μg/ml streptomycin and 0.1% COSMIC CALF SERUM. IBMX is an inhibitor of cAMP phosphodiesterase. The pretreatment was carried out for 10 min at 37° C.
Following pretreatment, 25 μl of diluted isoquinoline compound was added to the wells, and cells were incubated for 15 min at 37° C. Cells were lysed by adding 25 μl saponin lysis buffer and incubating 2 to 5 min. Plates were covered and stored at −20° C.
cAMP concentration was determined by ELISA. Briefly, 96 well ELISA plates were coated with goat anti-cAMP antibody in PBS for 12 to 72 hr at 4° C. 50 μl of sample was mixed with 50 μl of cAMP ELISA buffer containing 1% bovine serum albumin, 10% heat-inactivated donor horse serum, 1% normal mouse serum and 0.05% TWEEN-20 in PBS, and the diluted sample was added to the coated ELISA plate. Standards of known concentrations of cAMP were added to separate wells. 25 μl of 16 ng/ml cAMP-conjugated horse radish peroxidase (HRP) (cAMP-HRP) was added to each well, and the plates were […] at room temperature. Plates were washed and the binding of cAMP-HRP was detected with 3,3′,5,5′-tetramethylbenzidine (TMB) and hydrogen peroxide using standard immunoassay procedures.
Various isoquinoline compounds were tested for their ability to activate MC receptor by measuring cAMP as described in Example III.

Structure (SMILES) | % TNF-α Inhibtion, IP 30 (TNF-α) | % TNF-α Inhibtion, IP 100 (TNF-α) | % TNF-α Inhibtion, IP 300 (TNF-α) | EC50 (MCR-1) | MC-1 Max (pmole) cAMP produced (MCR-1) | decrease of TNF-α levels (TNF-α; LPS treated mice) | % TNF-α Inhibtion, Oral 600 (TNF-α) | % TNF-α Inhibtion, Oral 300 (TNF-α) | inhibiting TNF-α (TNF-α; LPS treated mice, both i.p. and oral administration)
CNC(CN)CN1Cc2ccccc2C(CNC2CCCCC2)C1c1ccc(O)cc1 (centres unmarked) [TRG 2405-156] | 30 ± 13% | 12 ± 7% | 48 ± 16% | 20.6 µM | 16.01 pmol |  |  |  | 
CNC(CN)CCCCN1Cc2ccccc2C(CNC2CCCCC2)C1c1ccc(Cl)cc1Cl (centres unmarked) [TRG 2405-190] | 70 ± 11 % | −6 ± 7% | 83 ± 11 % | 8.52 µM | 33.56 pmol | particularly effective at decreasing TNF-α |  |  | 
CNC(CN)CCCCN1Cc2ccccc2C(CNC2CCCCC2)C1c1ccc(N(C)C)cc1 (centres unmarked) [TRG 2405-235] | 8 ± 7% | 39 ± 7% | 50 ± 9% | 29.9 µM | 17.07 pmol |  |  |  | 
CNC(CN)CCCCN1Cc2ccccc2C(CNC2CCCCC2)C1c1ccc(C(F)(F)F)cc1 (centres unmarked) [TRG 2405-238] | 19 ± 7% | 73 ± 1 % | 84 ± 18 % | 19.9 µM | 29.82 pmol |  | 6 ± 28% |  | 
CCNc1ccc(C2C(CNC3CCCCC3)c3ccccc3CN2CCCCC(CN)NC)cc1 (centres unmarked) [TRG 2405-239] | 13 ± 8% | 10 ± 6% | 66 ± 9 % | 3.67 µM | 20.6 pmol |  | 9 ± 14% |  | 
CNC(CN)CCCCN1Cc2ccccc2C(CNC2CCCCC2)C1c1ccc(-c2ccccc2)cc1 (centres unmarked) [TRG 2405-241] | 26 ± 15% | 75 ± 3 % | 45 ± 9% | 10.4 µM | 66.67 pmol | particularly effective at decreasing TNF-α | 74 ± 8 % | 38 ± 9 % | 
CNC(CN)CCCCN1Cc2ccccc2C(CNC2CCCCC2)C1c1ccc(Br)cc1 (centres unmarked) [TRG 2405-242] | 21 ± 8% | 60 ± 4 % | 68 ± 5 % | 13.1 µM | 55.89 pmol |  |  |  | 
CNC(CN)CCCCN1Cc2ccccc2C(CNC2CCCCC2)C1c1ccc(O)cc1 (centres unmarked) [TRG 2405-246] | 27 ± 9% |  | 80 ± 3 % | 23.7 µM | 12.48 pmol |  | −29 ± 31 % |  | 
CNC(CN)CCCCN1Cc2ccccc2C(CNC2CCCCC2)C1c1ccc(Oc2ccccc2)cc1 (centres unmarked) [TRG 2405-252] | 49 ± 14 % |  | 90 ± 2 % | 16 µM | 33.07 pmol | particularly effective at decreasing TNF-α | 55 ± 13 % |  | 
CCCOc1ccc(C2C(CNC3CCCCC3)c3ccccc3CN2CCCCC(CN)NC)cc1 (centres unmarked) [TRG 2405-253] | 46 ± 8% |  | 80 ± 7% | 8.5 µM | 22.55 pmol | particularly effective at decreasing TNF-α |  |  | 
CNC(CN)CCCCN1Cc2ccccc2C(CNC2CCCCC2)C1c1ccc2cccc(O)c2n1 (centres unmarked) [TRG 2405-262] |  |  | 83 ± 3 % | > 50 µM |  |  |  |  | 
CNC(CN)CCCCN1Cc2ccccc2C(CN)C1c1ccc(Cl)cc1Cl (centres unmarked) [TRG 2407-39] | 24 ± 17% |  | 72 ± 5 % |  |  |  |  |  | 
CCNc1ccc(C2C(CNC3CCCCC3)c3ccccc3CN2CCCCC(CN)NC)cc1 (centres unmarked) [TRG 2408-30] | 30 ± 14% |  | 78 ± 3 % | 2.83 µM | 125.79 pmol | particularly effective at decreasing TNF-α | 74 ± 4 % | 42 ± 14 % | particularly effective at inhibiting TNF-α
CCNc1ccc(C2C(CNCc3ccccc3O)c3ccccc3CN2CCCC(CN)NCCc2ccccc2)cc1 (centres unmarked) [TRG 2408-57] | 76 ± 8 % | 83 ± 2 % and 87 ± 5 % | 86 ± 2 % | < 0.1 µM |  |  | 72 ± 7 % | 21 ± 11% | 
CCNc1ccc(C2C(CNC3CCCCC3)c3ccccc3CN2CCCC(CN)NCCc2ccccc2)cc1 (centres unmarked) [TRG 2408-62] | 71 ± 6 % |  | 84 ± 8 % | < 0.1 µM |  |  | 35 ± 5% | 45 ± 11% | 
CCCCNc1ccc(C2C(CNCc3ccccc3O)c3ccccc3CN2CCCCC(CN)NC)cc1 (centres unmarked) [TRG 2409-2] | 57 ± 6 % |  | 65 ± 14% | 1.01 µM | 200 pmol |  | 65 ± 2 % | 58 ± 2 % | 
CCCCNc1ccc(C2C(CNC3CCCCC3)c3ccccc3CN2CCCCC(CN)NC)cc1 (centres unmarked) [TRG 2409-14] | 31 ± 7% |  | 76 ± 7 % | 0.87 µM | 170 pmol |  | 67 ± 4 % | 41 ± 9 % | 
